Experiments:
[1] = system: nephrotoxicity induced by imipenem; assay: Protective action on nephrotoxicity induced by imipenem in rabbits; assay type: in vivo, male Japanese white rabbits; conditions: compound 150 mg/kg + imipenem 150 mg/kg
Procedure: (3) Protective action on nephrotoxicity induced by carbapenem antibiotics
Twelve male Japanese white rabbits (18 week-old; body weight 3.19-3.54 kg) were divided into three groups each consisting of 4 animals. Imipenem alone was administered in a dose of 150 mg/kg to a first group. To a second group, a combination of imipenem (150 mg/kg) and the compound No. 2 (150 mg/kg) was administered. To a third group as a control, sterilized physiological saline was administered. In all cases, the administration was effected through the auricular vein. Forty-eight hours later, a blood sample was taken from each of the animals, and the BUN and creatinine values were measured. The kidneys of the rabbits were taken and examined histopathologically.

ddY mice = assay: Acute toxicity test in mice; assay type: in vivo, Male ddY mice; conditions: 7 days
Procedure: (5) Acute toxicity test in mice
Male ddY mice (4 week-old; body weight 24-26 g) were divided into groups each consisting of 5 animals. The compound No. 2 was intravenously administered to a first group in a dose of 2,000 mg/kg. The compound No. 2 was orally administered to a second group in a dose of 4,000 mg/kg. After the administration, the incidence of death was observed over 7 days after the administration, and the results are shown in Table 5.

[2] = target: T1, porcine kidney dehydropeptidase I (Sus scrofa, UniProt P22412); assay: Inhibitory activity on porcine kidney dehydropeptidase I (DHP-I); assay type: biochemical; conditions: substrate glycyldehydrophenylalanine, pH 7.4, 37° C., 3 h pre-incubation; read-out: Concentration producing 50% inhibition (IC50)
T1 construct: Frozen porcine kidney cortex was homogenized; from tissue; host or cells: porcine kidney cortex
T1 sequence (P22412 17-409): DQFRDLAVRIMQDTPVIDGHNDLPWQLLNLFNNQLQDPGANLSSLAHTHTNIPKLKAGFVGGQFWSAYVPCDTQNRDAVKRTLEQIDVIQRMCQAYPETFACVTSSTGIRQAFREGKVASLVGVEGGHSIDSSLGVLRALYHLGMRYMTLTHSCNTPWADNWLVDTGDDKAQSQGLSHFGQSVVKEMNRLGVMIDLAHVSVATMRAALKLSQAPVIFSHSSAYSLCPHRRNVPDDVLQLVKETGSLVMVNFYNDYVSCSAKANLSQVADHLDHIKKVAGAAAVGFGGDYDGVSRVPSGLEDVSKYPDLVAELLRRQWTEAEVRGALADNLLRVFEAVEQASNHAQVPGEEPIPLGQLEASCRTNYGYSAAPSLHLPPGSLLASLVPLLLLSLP

[3] = Pharmacokinetic evaluation: plasma concentration in dogs; assay type: in vivo, Male beagle dogs; conditions: dog; for concentration at 0.5 h: 1/2 h; for concentration at 0.25 h: 1/4 h; for concentration at 5 min: 1/12 h; for AUC: trapezoidal rule
Procedure: Male beagle dogs (14 month-old) were divided into groups each having three animals. The compound No. 2 was administered intravenously to a first group in a dose of 10 mg/kg. The compound No. 2 was orally administered to a second group in a dose of 10 mg/kg. Then at the points of 1/12, 1/4, 1/2, 1, 2, 4, 6, 8, 24 and 48 hours after the administration, plasma samples were taken periodically from the cephalic vein, and the plasma concentrations of the compounds were measured by an enzyme assay using porcine DHP-I. The results are shown in Table 4-b. The area under the curve (AUC) of the plasma level was determined according to the trapezoidal rule.

[4] = Effect on urinary recovery of carbapenem (imipenem) in rats; assay type: in vivo, Male SD rats; conditions: urine up to 8 hours, n = 3
Procedure: (2) Effect on urinary recovery of carbapenem
Male SD rats (8 week-old) were grouped, three per group. Imipenem alone was intravenously administered in a dose of 10 mg/kg to a first group. […] For comparison, a combination of imipenem (10 mg/kg) and cilastatin (10 mg/kg) was intravenously administered to a fourth group.
The urinary recovery of imipenem was calculated.

In the case of `CC(C)CP(=O)(O)C/C(=C\C1CCCCC1)C(=O)O` [Compound No. 2, (Z)-3-cyclohexyl-2-(hydroxyisobutylphosphinoyl)methylpropenoic acid], the “Necrosis of the kidney tissue, number of rabbits which necrotized versus number tested” value [1] is reported as 0/4, the BUN ([1]; auricular vein, 48 hours) is reported as 16.2 mg/100 ml and the Creatinine ([1]; auricular vein, 48 hours) is reported as 1.49 mg/dL. For the same molecule, the “Necrosis of the kidney tissue” value ([1]; grade in words) was “None”, the “Mortality, number of dead mice versus number of mice tested” value (ddY mice; i.v. 2,000 mg/kg) was 0/5 and the “Mortality, number of dead mice versus number of mice tested” value (ddY mice; p.o. 4,000 mg/kg) was 0/5. For the same molecule, the IC50 [2] was 13 nM, the concentration at 0.5 h ([3]; iv 10 mg/kg) was 52200 ng/mL and the concentration at 0.25 h ([3]; iv 10 mg/kg) was 71000 ng/mL. It also gave a concentration at 5 min ([3]; iv 10 mg/kg) of 87300 ng/mL, a concentration at 1 h ([3]; iv 10 mg/kg) of 40800 ng/mL and a concentration at 2 h ([3]; iv 10 mg/kg) of 24500 ng/mL. It also gave a concentration at 4 h ([3]; iv 10 mg/kg) of 6700 ng/mL, a concentration at 6 h ([3]; iv 10 mg/kg) of 2400 ng/mL and a concentration at 8 h ([3]; iv 10 mg/kg) of 1200 ng/mL. The concentration at 24 h ([3]; iv 10 mg/kg) was 100 ng/mL, the AUC ([3]; iv 10 mg/kg) was 144000 ng·h/mL and the concentration at 0.5 h ([3]; po 10 mg/kg) was 5800 ng/mL. For the same molecule, the concentration at 0.25 h ([3]; po 10 mg/kg) was 3000 ng/mL, the concentration at 5 min ([3]; po 10 mg/kg) was 500 ng/mL and the concentration at 1 h ([3]; po 10 mg/kg) was 9600 ng/mL. It also gave a concentration at 2 h ([3]; po 10 mg/kg) of 7800 ng/mL, a concentration at 4 h ([3]; po 10 mg/kg) of 3100 ng/mL and a concentration at 6 h ([3]; po 10 mg/kg) of 1600 ng/mL. The concentration at 8 h ([3]; po 10 mg/kg) was 700 ng/mL, the concentration at 24 h ([3]; po 10 mg/kg) was 700 ng/mL and the AUC ([3]; po 10 mg/kg) was 51500 ng·h/mL. For the same molecule, the “Urinary recovery of imipenem, Mean ± S.D.” value ([4]; inhibitor 10 mg/kg iv with imipenem 10 mg/kg iv) was 95.3 ± 6.1% and the “Urinary recovery of imipenem, Mean ± S.D.” value ([4]; inhibitor 10 mg/kg po 30 minutes before imipenem 10 mg/kg iv) was 52.1 ± 4.9%.

Reference: US4988681A, “Phosphinic acid derivatives” (Banyu Pharmaceutical Co., Ltd., priority 1988, dated 1991)
